Results as given in EP0907658B1 (PRINCE OF WALES MEDICAL RESEARCH INSTITUTE LIMITED, priority 1996, dated 2004).
Ends that are not written are not given here.

Assays:
[1] = system: neuropeptide Y Y1 receptor; conditions: studies in vivo; cited from earlier work
[2] = system: neuropeptide Y Y2 (prejunctional); conditions: studies in vivo; cited from earlier work
[3] = target: Y2-like receptors; test: Inhibition of the increase in pulse interval evoked by vagus nerve stimulation in anaesthetised rats (prejunctional activity); type: in vivo; conditions: for EC50 ΔP1%: change in pulse interval, anaesthetised rats, intravenous peptide; for in vivo activity at Y2 receptors (potency as inhibitor of the effect of vagal stimulation on heart rate): compared with Ac[L28,L31]NPY24-36
Protocol: (§1) Experiments were carried out on adult rats (Wistar) of both sexes (250-350g), anaesthetised with sodium pentobarbitone (Nembutal, Boehringer-Ingleheim; 60 mg/kg, i.p.). The trachea was cannulated and the animal artificially ventilated. The femoral vein was cannulated for administration of peptides and further doses of anaesthetic. The left femoral artery was cannulated to record arterial pressure. Both vagus nerves were cut. […] The frequency was chosen to increase pulse interval by approximately 100 ms, a submaximal effect on this variable. The electrocardiogram was measured using needle electrodes and monitored on one channel of an osciloscope. Pulse interval (the period between successive beats of the heart) was recorded beat-by-beat by triggering from ECG. Pulse interval and arterial pressure were recorded on the pen recorder.
Dose-response curves were constructed from group data for all rats. Because of the long time-course of action of the peptides tested, not all peptides were given to each rat. Usually however, each rat received neuropeptide Y and two other peptides.
As an indication of prejunctional activity two parameters were measured; the maximum percent inhibition of the increase in pulse interval evoked by stimulation of the vagus nerve following injection of peptide and the time to half recovery of this effect (T50). For pressor action, an indicator of postjunctional activity, two parameters were also measured; the peak pressor response following injection of peptide and the duration of the increase in blood pressure. These indices give a reliable measure of the actions of a peptide at pre-and postjunctional sites, and have been used previously in this laboratory for this purpose; Potter et al., 1989; Potter et al., 1991). Results were analysed using a one-way ANOVA.

[4] = system: transmitter release from renal nerves; test: Kidney blood flow: increase of renal vascular resistance elicited by renal nerve stimulation; type: in vivo, dogs; conditions: 40 nmol dose; Figure 1
Protocol: Experiments were carried out in six, adult, mongrel dogs of both sexes weighing between 18 and 26 kg. The dogs were anaesthetised with a bolus injection of sodium pentobarbitone (36 mg/kg intravenous; Nembutal, Boehringer Ingelheim) and then maintained on an infusion (2-3 mg/kg/hr). The animal was artificially ventilated, maintained at constant temperature and blood pressure and heart rate were monitored continuously.
The left kidney was exposed retroperitoneally and renal arterial blood flow was monitored continuously (Pernow & Lundberg, 1989a), using a transonic flow probe (Transonic System Inc., N.Y.). Postganglionic nerves to the kidney were isolated, cut and placed over bipolar, platinum electrodes for stimulation (1-10 Hz, 5-10 V, 1-5 msec).
The renal nerve was stimulated over a range of frequencies (1-10 Hz) for 30 secs and a frequency-response curve constructed. The responses were measured at the peak change in flow. […] Responses were reported as change in vascular resistance.

[5] = system: Y1 receptors; test: Pressor response (blood pressure increase) after peptide injection in anaesthetised rats (postjunctional activity); type: in vivo
Protocol: as §1, with “The” for “The frequency was chosen to increase pulse interval by approximately 100 ms, a submaximal effect on this variable. The”
Dose-response curves were constructed from group data for all rats. Because of the long time-course of action of the peptides tested, not all peptides were given to each rat.
As an indication of prejunctional activity two parameters were measured; the maximum percent inhibition of the increase in pulse interval evoked by stimulation of the vagus nerve following injection of peptide and the time to half recovery of this effect (T50). For pressor action, an indicator of postjunctional activity, two parameters were also measured; the peak pressor response following injection of peptide and the duration of the increase in blood pressure. […] Results were analysed using a one-way ANOVA.

[6] = system: human Y2 receptor; test: [125I]NPY receptor binding assay on SMS-MSN cells; conditions: for IC50: SMS-MSN cells, 30 pM [125I]NPY
Protocol: SK-N-MC cells expressing the human Y1 receptor and SMS-MSN cells expressing the human Y2 receptor were obtained from the ATCC. They were cultured in 1:1 DMEM:Ham's F12 medium (ICN) containing 10% fetal calf serum, 0.1% non-essential amino acids, 0.2 mM glutamine, and 0.056% sodium bicarbonate. Confluent cells were harvested in scraping and pellets were stored at -80°C. On the day of use cells were thawed, washed once in binding buffer salts, passed several times through a 22 ga. needle, and the protein content was assayed using bicinchoninic acid (BCA kit, Pierce).
Just before use, plates were filtered and washed twice with 50 mM Tris-HCI pH 7.4 / 0.1% BSA. […] Binding was terminated by filtration. […] Specific binding was analysed by nonlinear regression using a single-site fitting function (Graphpad Prism). Nonspecific binding was defined by binding in the presence of 1 µM competitor.

[7] = system: neuropeptide Y Y2 receptor subtype; conditions: SMS-KAN cells; cited from earlier work
[8] = system: human neuropeptide Y Y1 receptor; conditions: Y1 receptor expressed in fibroblast cells; cited from earlier work
[9] = system: neuropeptide Y Y1 receptor type; conditions: SK-N-MC cells; cited from earlier work

Question: With “(Leu^17, Glu^19, Ala^21, Ala^22, Glu^23, Leu^28, Leu^31) neuropeptide Y-(13-36) [ANA neuropeptide Y-(13-36)]” as the substance, how does the pressor activity [1] read?
Answer: The pressor activity was “retained significant pressor activity”.

Question: What about the prejunctional activity [2] of the same substance?
Answer: The prejunctional activity was “prejunctional activity equivalent to the whole neuropeptide Y molecule”.

Question: For “Ac-ARAALNAATRQRY-NH2 [Ac[A24,26,27,30,31,L28]NPY24-36]”, which “EC50 ΔP1%” value [3] is on record?
Answer: The value was 0.56 nmol.

Question: And the “in vivo activity at Y2 receptors (potency as inhibitor of the effect of vagal stimulation on heart rate)” value [3]?
Answer: The value was “enhanced in vivo activity at Y2 receptors”.

Question: Which results are given for “Ac-ARHALNLLTRQRY-NH2 [Ac[A24,A27,L28,L31]NPY24-36, Ac[Ala24, Ala27, Leu28, Leu31]NPY(24-36)]”?
Answer: inhibition of the increase of renal vascular resistance elicited by renal nerve stimulation [4]: almost completely inhibited the effect of nerve stimulation; EC50 ΔP1% [3]: 0.89 nmol; in vivo activity at Y2 receptors (potency as inhibitor of the effect of vagal stimulation on heart rate) [3]: enhanced in vivo activity at Y2 receptors; direct effect on the circulation ([5]; 40 nmol dose, Table 1): exerted no direct effect on the circulation; affinity for NPY Y2 receptors ([6]; in words): high affinity for NPY Y2 receptors

Question: For “Ac-ARHYLNLLTRQRY-NH2 [Ac[A24,L28,L31]NPY24-36]”, which “EC50 ΔP1%” value [3] is on record?
Answer: The value was 0.46 nmol.

Question: For “Ac-LAHYLNLLTRQRY-NH2 [Ac[A25,L28,L31]NPY24-36]”, which “EC50 ΔP1%” value [3] is on record?
Answer: The value was 1.58 nmol.

Question: And the IC50 [6]?
Answer: Its IC50 is 2 nM.

Question: For “Ac-LAHYRNLLTRQRY-NH2 [Ac[A25,R28,L31]NPY24-36]”, which “EC50 ΔP1%” value [3] is on record?
Answer: The value was 1.95 nmol.

Question: Which “EC50 ΔP1%” value [3] does the source give for “Ac-LRAYLNLLTRQRY-NH2 [Ac[A26,L28,L31]NPY24-36]” here?
Answer: The value was 1.26 nmol.

Question: With “Ac-LRHALNLLTRQRY-NH2 [Ac[A27,L28,L31]NPY24-36]” as the substance, how does the “EC50 ΔP1%” value [3] read?
Answer: The value was 0.52 nmol.

Question: Which “EC50 ΔP1%” value [3] does the source give for “Ac-LRHYANLLTRQRY-NH2 [Ac[A28,L31]NPY24-36]” here?
Answer: The value was 2.75 nmol.

Question: Which “EC50 ΔP1%” value [3] does the source give for “Ac-LRHYLALLTRQRY-NH2 [Ac[L28,A29,L31]NPY24-36]” here?
Answer: The value was 1.48 nmol.

Question: With “Ac-LRHYLNALTRQRY-NH2 [Ac[L28,A30,L31]NPY24-36]” as the substance, how does the “EC50 ΔP1%” value [3] read?
Answer: Its value is 0.39 nmol.

Question: Which “EC50 ΔP1%” value [3] does the source give for “Ac-LRHYLNLATRQRY-NH2 [Ac[L28,A31]NPY24-36]” here?
Answer: Its value is 0.78 nmol.

Question: Which “EC50 ΔP1%” value [3] does the source give for “Ac-LRHYLNLLARQRY-NH2 [Ac[L28,L31,A32]NPY24-36]” here?
Answer: The value was 6.46 nmol.

Question: For “Ac-LRHYLNLLTRQRY-NH2 [Ac[L28,L31]NPY24-36]”, which “EC50 ΔP1%” value [3] is on record?
Answer: The value was 3.16 nmol.

Question: What about the IC50 [6] of the same substance?
Answer: The IC50 was 3.9 nM.

Question: And the “affinity for the neuropeptide Y Y2 receptor subtype” value [7]?
Answer: The value was “significant affinity”.

Question: And the “increase in cytosolic calcium” value [8]?
Answer: The value was “did hot stimulate”.

Question: What about the “affinity for the neuropeptide Y Y1 receptor type” value [9] of the same substance?
Answer: Its value is “no affinity”.

Question: With AcNPY 24-36 as the substance, how does the “Increase in BP (rel to NPY)” value ([5]; anaesthetised rats, †: No response to 10 nmole dose) read?
Answer: The value was “Of”.

Question: Which “in vivo activity at Y2 receptors (potency as inhibitor of the effect of vagal stimulation on heart rate)” value [3] does the source give for “Ac[A26,A27,L28,L31]NPY24-36 (Ac-LRAALNLLTRQRY; ends and bridges not checked; UniProt P01303 52-64, looked up, variant H26A Y27A I28L I31L) [Ac[A26,27,L28,31]NPY24-36]” here?
Answer: Its value is “enhanced in vivo activity at Y2 receptors”.

Question: Which “EC50 ΔP1%” value [3] does the source give for “Ac[L28,I30]NPY24-36 (Ac-LRHYLNIITRQRY; ends and bridges not checked; UniProt P01303 52-64, looked up, variant I28L L30I)” here?
Answer: Its value is 1.26 nmol.

Question: For Neuropeptide Y [NPY], which “change of blood pressure” value ([5]; in vivo in rats, at the doses tested) is on record?
Answer: Its value is “raised blood pressure significantly in a dose-dependent manner”.
